Measured values published in ChEMBL document CHEMBL1201862, “PubChem BioAssay data set” (2004).
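Cultured in 96-well plates, cells were exposed to test compound for 48 hours across five concentrations. Here, GI50 denotes the concentration required for 50% inhibition of growth.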 Activity calls are given as the source filed them. No stated cut-off is given here; in the data, active = GI50 up to about 1.1 µM and inactive = higher.

Key:
Assay in all cases: DTP human tumour cell line panel, 48 h
786-0 = system: 786-0
A498 = system: A498
A549 = system: A549
ACHN = system: ACHN
BT-549 = system: BT-549
CAKI-1 = system: CAKI-1
CCRF-CEM = system: CCRF-CEM
COLO 205 = system: COLO 205
DU-145 = system: DU-145
EKVX = system: EKVX
HCC 2998 = system: HCC 2998
HCT-116 = system: HCT-116
HCT-15 = system: HCT-15
HL-60 = system: HL-60
HOP-62 = system: HOP-62
HOP-92 = system: HOP-92
HT-29 = system: HT-29
Hs-578T = system: Hs-578T
IGROV-1 = system: IGROV-1
K562 = system: K562
KM12 = system: KM12
LOX IMVI = system: LOX IMVI
M14 = system: M14
MDA-MB-435 = system: MDA-MB-435
MDA-N = system: MDA-N
MOLT-4 = system: MOLT-4
Malme-3M = system: Malme-3M
NCI-H226 = system: NCI-H226
NCI-H23 = system: NCI-H23
NCI-H460 = system: NCI-H460
NCI-H522 = system: NCI-H522
NCI/ADR-RES = system: NCI/ADR-RES
OVCAR-3 = system: OVCAR-3
OVCAR-4 = system: OVCAR-4
OVCAR-5 = system: OVCAR-5
OVCAR-8 = system: OVCAR-8
PC-3 = system: PC-3
RPMI-8226 = system: RPMI-8226
RXF 393 = system: RXF 393
SF-268 = system: SF-268
SF-295 = system: SF-295
SF-539 = system: SF-539
SK-MEL-28 = system: SK-MEL-28
SK-MEL-2 = system: SK-MEL-2
SK-MEL-5 = system: SK-MEL-5
SK-OV-3 = system: SK-OV-3
SN12C = system: SN12C
SNB-19 = system: SNB-19
SNB-75 = system: SNB-75
SR = system: SR
SW-620 = system: SW-620
T47D = system: T47D
TK-10 = system: TK-10
U-251 = system: U-251
UACC-257 = system: UACC-257
UACC-62 = system: UACC-62
UO-31 = system: UO-31
MDA-MB-231 = system: MDA-MB-231

## Oc1ccccc1/C=N/c1ccc(-c2nc3ccccc3s2)cc1
786-0
  GI50: 29.2 µM (inactive)
A498
  GI50: 21.4 µM (inactive)
A549
  GI50: 36.7 µM (inactive)
ACHN
  GI50: 22.4 µM (inactive)
BT-549
  GI50: 31.8 µM (inactive)
CAKI-1
  GI50: 28.2 µM (inactive)
CCRF-CEM
  GI50: 6.89 µM (inactive)
COLO 205
  GI50: 19.6 µM (inactive)
DU-145
  GI50: 45.7 µM (inactive)
EKVX
  GI50: 21.3 µM (inactive)
HCC 2998
  GI50: 20.3 µM (inactive)
HCT-116
  GI50: 29.6 µM (inactive)
HCT-15
  GI50: 24.4 µM
HL-60
  GI50: 11.8 µM (inactive)
HOP-62
  GI50: 19.1 µM (inactive)
HOP-92
  GI50: 17.7 µM (inactive)
HT-29
  GI50: 30.8 µM (inactive)
Hs-578T
  GI50: 30.7 µM (inactive)
IGROV-1
  GI50: 28.2 µM (inactive)
K562
  GI50: 24.6 µM (inactive)
KM12
  GI50: 22 µM (inactive)
LOX IMVI
  GI50: 26.4 µM (inactive)
M14
  GI50: 37.1 µM (inactive)
MDA-MB-435
  GI50: 26.6 µM (inactive)
MDA-N
  GI50: 29.6 µM (inactive)
MOLT-4
  GI50: 22.7 µM (inactive)
Malme-3M
  GI50: 37.1 µM (inactive)
NCI-H226
  GI50: 24.8 µM (inactive)
NCI-H23
  GI50: 31.8 µM (inactive)
NCI-H460
  GI50: 25 µM (inactive)
NCI-H522
  GI50: 17.3 µM (inactive)
NCI/ADR-RES
  GI50: 25.6 µM (inactive)
OVCAR-3
  GI50: 20.6 µM (inactive)
OVCAR-4
  GI50: 30.2 µM (inactive)
OVCAR-5
  GI50: 28.3 µM (inactive)
OVCAR-8
  GI50: 28.6 µM (inactive)
PC-3
  GI50: 18.7 µM (inactive)
RPMI-8226
  GI50: 23.2 µM (inactive)
RXF 393
  GI50: 28.5 µM (inactive)
SF-268
  GI50: 23.2 µM (inactive)
SF-295
  GI50: 24.1 µM (inactive)
SF-539
  GI50: 30.8 µM (inactive)
SK-MEL-28
  GI50: 41.7 µM (inactive)
SK-MEL-2
  GI50: 21.3 µM (inactive)
SK-MEL-5
  GI50: 15.1 µM (inactive)
SK-OV-3
  GI50: 27.2 µM (inactive)
SN12C
  GI50: 29.3 µM (inactive)
SNB-19
  GI50: 48.4 µM (inactive)
SNB-75
  GI50: 36.1 µM (inactive)
SR
  GI50: 33.7 µM (inactive)
SW-620
  GI50: 41.5 µM (inactive)
T47D
  GI50: 10.4 µM (inactive)
TK-10
  GI50: 31.2 µM (inactive)
U-251
  GI50: 30.9 µM (inactive)
UACC-257
  GI50: 24 µM (inactive)
UACC-62
  GI50: 21.2 µM (inactive)
UO-31
  GI50: 28.5 µM (inactive)

## CCN(CC)C(=S)SNCCc1ccc(S(N)(=O)=O)cc1
786-0
  GI50: 14.7 µM (inactive)
A498
  GI50: 30.7 µM (inactive)
A549
  GI50: 11.9 µM (inactive)
ACHN
  GI50: 17.9 µM (inactive)
BT-549
  GI50: 16 µM (inactive)
CAKI-1
  GI50: 14 µM (inactive)
CCRF-CEM
  GI50: 0.169 µM (active)
COLO 205
  GI50: 29.2 µM (inactive)
DU-145
  GI50: 14 µM (inactive)
EKVX
  GI50: 20 µM (inactive)
HCC 2998
  GI50: 21.6 µM (inactive)
HCT-116
  GI50: 13.3 µM (inactive)
HCT-15
  GI50: 16.8 µM
HOP-62
  GI50: 12.2 µM (inactive)
HOP-92
  GI50: 17.5 µM (inactive)
HT-29
  GI50: 10.2 µM (inactive)
Hs-578T
  GI50: 19.5 µM (inactive)
K562
  GI50: 20 µM (inactive)
KM12
  GI50: 16.6 µM (inactive)
LOX IMVI
  GI50: 8 µM (inactive)
M14
  GI50: 10.9 µM (inactive)
MDA-MB-231
  GI50: 14.7 µM (inactive)
MDA-MB-435
  GI50: 14.7 µM (inactive)
MDA-N
  GI50: 18.3 µM (inactive)
Malme-3M
  GI50: 12 µM (inactive)
NCI-H226
  GI50: 42.7 µM (inactive)
NCI-H23
  GI50: 18.8 µM (inactive)
NCI-H460
  GI50: 22.4 µM (inactive)
NCI/ADR-RES
  GI50: 17.4 µM (inactive)
OVCAR-3
  GI50: 18.9 µM (inactive)
OVCAR-4
  GI50: 14.4 µM (inactive)
OVCAR-5
  GI50: 15.6 µM (inactive)
OVCAR-8
  GI50: 12.6 µM (inactive)
PC-3
  GI50: 13.9 µM (inactive)
RPMI-8226
  GI50: 11.5 µM (inactive)
RXF 393
  GI50: 7.57 µM (inactive)
SF-268
  GI50: 15.6 µM (inactive)
SF-295
  GI50: 16.7 µM (inactive)
SF-539
  GI50: 14.1 µM (inactive)
SK-MEL-28
  GI50: 9.23 µM (inactive)
SK-MEL-2
  GI50: 33.6 µM (inactive)
SK-MEL-5
  GI50: 11.2 µM (inactive)
SK-OV-3
  GI50: 25.4 µM (inactive)
SN12C
  GI50: 14.2 µM (inactive)
SNB-19
  GI50: 20 µM (inactive)
SNB-75
  GI50: 13.9 µM (inactive)
SR
  GI50: < 0.01 µM (active)
SW-620
  GI50: 14.1 µM (inactive)
T47D
  GI50: 18.1 µM (inactive)
TK-10
  GI50: 18.6 µM (inactive)
U-251
  GI50: 15.5 µM (inactive)
UACC-257
  GI50: 15.5 µM (inactive)
UACC-62
  GI50: 16.9 µM (inactive)
UO-31
  GI50: 13.1 µM (inactive)

## Cc1ccc(S(=O)(=O)NC(C(=O)O)C(C)C)cc1 (centres undefined)
786-0
  GI50: > 100 µM (inactive)
A498
  GI50: > 100 µM (inactive)
A549
  GI50: > 100 µM (inactive)
ACHN
  GI50: > 100 µM (inactive)
BT-549
  GI50: > 100 µM (inactive)
CAKI-1
  GI50: > 100 µM (inactive)
CCRF-CEM
  GI50: > 100 µM (inactive)
DU-145
  GI50: > 100 µM (inactive)
EKVX
  GI50: > 100 µM (inactive)
HCC 2998
  GI50: > 100 µM (inactive)
HCT-116
  GI50: > 100 µM (inactive)
HCT-15
  GI50: > 100 µM
HOP-62
  GI50: > 100 µM (inactive)
HOP-92
  GI50: > 100 µM (inactive)
HT-29
  GI50: > 100 µM (inactive)
Hs-578T
  GI50: > 100 µM (inactive)
IGROV-1
  GI50: > 100 µM (inactive)
K562
  GI50: > 100 µM (inactive)
KM12
  GI50: > 100 µM (inactive)
LOX IMVI
  GI50: > 100 µM (inactive)
M14
  GI50: > 100 µM (inactive)
MDA-MB-231
  GI50: > 100 µM (inactive)
MDA-MB-435
  GI50: > 100 µM (inactive)
MDA-N
  GI50: > 100 µM (inactive)
MOLT-4
  GI50: > 100 µM (inactive)
Malme-3M
  GI50: > 100 µM (inactive)
NCI-H226
  GI50: > 100 µM (inactive)
NCI-H23
  GI50: > 100 µM (inactive)
NCI-H460
  GI50: > 100 µM (inactive)
NCI-H522
  GI50: > 100 µM (inactive)
NCI/ADR-RES
  GI50: > 100 µM (inactive)
OVCAR-3
  GI50: > 100 µM (inactive)
OVCAR-4
  GI50: > 100 µM (inactive)
OVCAR-5
  GI50: > 100 µM (inactive)
OVCAR-8
  GI50: > 100 µM (inactive)
PC-3
  GI50: > 100 µM (inactive)
RXF 393
  GI50: > 100 µM (inactive)
SF-268
  GI50: > 100 µM (inactive)
SF-295
  GI50: > 100 µM (inactive)
SK-MEL-28
  GI50: > 100 µM (inactive)
SK-MEL-2
  GI50: > 100 µM (inactive)
SK-MEL-5
  GI50: > 100 µM (inactive)
SN12C
  GI50: > 100 µM (inactive)
SNB-19
  GI50: > 100 µM (inactive)
SNB-75
  GI50: > 100 µM (inactive)
SR
  GI50: > 100 µM (inactive)
SW-620
  GI50: > 100 µM (inactive)
T47D
  GI50: > 100 µM (inactive)
TK-10
  GI50: > 100 µM (inactive)
U-251
  GI50: > 100 µM (inactive)
UACC-257
  GI50: > 100 µM (inactive)
UACC-62
  GI50: > 100 µM (inactive)
UO-31
  GI50: > 100 µM (inactive)
